Our source for the GI50 and TGI values is PubChem BioAssay (NCI).

“And” between values parts separate entries of the source, which are not always exact repeats. Equal values may be shown once.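 Compound exposure: 48 hours, 5 concentrations, 96-well plates. GI50 = concentration required for 50% inhibition of growth. TGI: concentration producing complete growth inhibition.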 A value given as a limit tells only on which side of the number the result lay.

Some test systems named below: SW-620 colon; 786-0 renal; HS 578T breast; OVCAR-5 ovarian; DU-145 prostate; NCI-H226 lung; HL-60(TB) leukemia; NCI/ADR-RES ovarian; SR leukemia; U251 CNS.
Common to all, as to experiment: growth of human tumour cells (NCI), 48 h

As for `[Cl][Hg][c]1cc(Br)cc(Br)c1`, the GI50 in the test on SW-620 colon was 1.74 µM; with 786-0 renal it was 1.69 µM; with HS 578T breast, 1.58 µM; in the test on OVCAR-5 ovarian, 2.8 µM; with DU-145 prostate, 2.77 µM; in the test with NCI-H226 lung, 3.48 µM. In addition, the GI50 with HL-60(TB) leukemia was 1.95 µM; with NCI/ADR-RES ovarian it was 3.07 µM; in the test on SR leukemia it was 0.866 µM; with U251 CNS, 0.441 µM. The TGI in the test with SW-620 colon was 3.52 µM; in the test with 786-0 renal, 3.2 µM; in the test on HS 578T breast it was 7.07 µM; with OVCAR-5 ovarian, 5.65 µM; with DU-145 prostate, 10.6 µM; in the test on NCI-H226 lung, 8.84 µM. Further, the TGI in the test on HL-60(TB) leukemia was 4.24 µM; in the test with NCI/ADR-RES ovarian, 13.5 µM; with SR leukemia it was 3.52 µM; with U251 CNS, 1.67 µM.

With `CCN(CC)CCC(CNc1ccnc2cc(Cl)ccc12)c1ccc(OC)cc1` (stereo not given), the GI50 in the test with SW-620 colon was 8.16 µM and 4.1 µM; in the test with 786-0 renal it was 11.9 µM and 3.46 µM; in the test with HS 578T breast it was 5.51 µM and 7.53 µM; with OVCAR-5 ovarian, 11.6 µM and 5.65 µM; in the test on DU-145 prostate it was 21.9 µM and 26.7 µM; in the test on NCI-H226 lung, 4.14 µM and 4.92 µM. Moreover, the GI50 is 6.59 µM and 3.76 µM in the test with HL-60(TB) leukemia; 8.66 µM and 7.57 µM with NCI/ADR-RES ovarian; 2.31 µM and 2.04 µM with SR leukemia; 4.91 µM and 3.52 µM in the test on U251 CNS. The TGI was 22.6 µM and 21.7 µM in the test on SW-620 colon; 25.8 µM and 11.8 µM in the test on 786-0 renal; 23.4 µM and 34.3 µM in the test on HS 578T breast; 32.2 µM and 38.6 µM in the test on OVCAR-5 ovarian; over 100 µM in the test with DU-145 prostate; 17.3 µM and 28.4 µM with NCI-H226 lung. The TGI in the test with HL-60(TB) leukemia is 25.3 µM and 20.4 µM; in the test with NCI/ADR-RES ovarian it was 47.5 µM and 34.3 µM; in the test on SR leukemia it was 8.35 µM and 7.34 µM; with U251 CNS, 17.2 µM and 11.5 µM.

With `COc1ccc2c(c1)CCCC(Br)C2=O` (stereo not given), the TGI was over 33.3 µM in the test with SW-620 colon; over 30 µM with 786-0 renal; over 94.3 µM in the test with HS 578T breast; 20.8 µM in the test on OVCAR-5 ovarian; 44.9 µM in the test on DU-145 prostate; 5.92 µM in the test on NCI-H226 lung. Moreover, the TGI with HL-60(TB) leukemia is 16.9 µM; in the test with NCI/ADR-RES ovarian, over 29.9 µM; in the test with SR leukemia, 24.6 µM; in the test on U251 CNS it was 29.6 µM.

Consider `O=C(Nc1ccc(Cl)cc1F)c1ccccc1O`, for which the GI50 was 3.26 µM in the test with SW-620 colon; 3.44 µM with 786-0 renal; 2.68 µM in the test on HS 578T breast; 3.04 µM in the test with OVCAR-5 ovarian; 4.13 µM with DU-145 prostate; 2.23 µM in the test with NCI-H226 lung. The GI50 in the test with HL-60(TB) leukemia is 2.53 µM; in the test with NCI/ADR-RES ovarian, 2.44 µM; in the test with SR leukemia, 5.73 µM; in the test on U251 CNS it was 3.42 µM. In addition, the TGI in the test with SW-620 colon was over 100 µM; in the test on 786-0 renal, over 100 µM; with HS 578T breast, 23.2 µM; with OVCAR-5 ovarian it was over 100 µM; with DU-145 prostate, over 100 µM; in the test with NCI-H226 lung, 8.85 µM. For the same compound, the TGI is 6.16 µM with HL-60(TB) leukemia, 7.61 µM in the test with NCI/ADR-RES ovarian, over 100 µM with SR leukemia and over 100 µM in the test on U251 CNS.

`O=C(Cc1ccc(/C=C/C(=O)c2ncc[nH]2)cc1)Nc1cc(F)c(F)c(F)c1`: the GI50 was 1.88 µM with SW-620 colon; 3.08 µM in the test with 786-0 renal; 7.3 µM in the test on HS 578T breast; 4.58 µM in the test on OVCAR-5 ovarian; 3.37 µM in the test on DU-145 prostate; 4.83 µM in the test on NCI-H226 lung. The GI50 is 4.28 µM in the test with HL-60(TB) leukemia, 7.26 µM in the test with NCI/ADR-RES ovarian, 2.16 µM with SR leukemia and 0.992 µM with U251 CNS. Also, the TGI in the test on SW-620 colon was 6.79 µM; with 786-0 renal it was 6.32 µM; in the test with HS 578T breast, over 25 µM; in the test with OVCAR-5 ovarian, 8.84 µM; in the test with DU-145 prostate, 7.08 µM; with NCI-H226 lung it was 12.8 µM. Further, the TGI is 11.2 µM in the test with HL-60(TB) leukemia, over 25 µM in the test with NCI/ADR-RES ovarian, 13.3 µM with SR leukemia and 3.8 µM in the test with U251 CNS.

Turning to `COc1ccc(/C=C(/C(=O)N2CCN(c3ccccc3)CC2)c2cc(OC)c(OC)c(OC)c2)cc1O`, the GI50 in the test with SW-620 colon was 0.468 µM; with 786-0 renal, 4.1 µM; in the test on HS 578T breast it was 0.712 µM; in the test on OVCAR-5 ovarian, 0.678 µM; with DU-145 prostate it was 0.451 µM; in the test with NCI-H226 lung, 60.9 µM. In addition, the GI50 is 0.239 µM with HL-60(TB) leukemia, 0.676 µM in the test on NCI/ADR-RES ovarian, 0.381 µM in the test on SR leukemia and 0.445 µM with U251 CNS. Also, the TGI in the test with SW-620 colon, in the test on 786-0 renal, in the test on HS 578T breast, in the test with OVCAR-5 ovarian, in the test with DU-145 prostate and with NCI-H226 lung was over 100 µM throughout. For the same compound, the TGI in the test on HL-60(TB) leukemia was 0.575 µM; in the test with NCI/ADR-RES ovarian it was over 100 µM; with SR leukemia it was 58.4 µM; with U251 CNS, over 100 µM.

Turning to `C=C1CC[C@@H]2[C@](C)(COC(C)=O)[C@H](OC(C)=O)CC[C@@]2(C)[C@@H]1CC(Sc1ccccc1)C1=CCOC1=O` (stereo not given in full), the GI50 with SW-620 colon is 0.716 µM; in the test on 786-0 renal, 1.9 µM; with HS 578T breast it was 4.89 µM; in the test on OVCAR-5 ovarian, 2.46 µM; in the test on DU-145 prostate it was 1.41 µM; in the test with NCI-H226 lung, 2.3 µM. The GI50 was 0.43 µM in the test on HL-60(TB) leukemia, 2.1 µM with NCI/ADR-RES ovarian, 0.553 µM in the test on SR leukemia and 1.56 µM with U251 CNS. For the same compound, the TGI is 3.64 µM in the test on SW-620 colon; 3.64 µM with 786-0 renal; 63.3 µM in the test on HS 578T breast; 4.67 µM in the test on OVCAR-5 ovarian; 2.74 µM in the test with DU-145 prostate; 5.98 µM in the test on NCI-H226 lung. Also, the TGI was 2.27 µM in the test with HL-60(TB) leukemia, 11 µM with NCI/ADR-RES ovarian, 3.66 µM with SR leukemia and 2.96 µM with U251 CNS.

Regarding `NC(=Nc1c([N+](=O)[O-])cnc2ccccc12)N1CCOCC1`, the TGI in the test with SW-620 colon, with 786-0 renal, in the test with HS 578T breast, in the test with OVCAR-5 ovarian, with DU-145 prostate and in the test on NCI-H226 lung was over 100 µM in each case. Also, the TGI with HL-60(TB) leukemia, with NCI/ADR-RES ovarian, with SR leukemia and in the test with U251 CNS was over 100 µM in each case.

Take `CC(O)CCC(=O)c1ccoc1` (stereo not given): the TGI in the test on SW-620 colon, in the test on 786-0 renal, with HS 578T breast, in the test on OVCAR-5 ovarian, in the test on DU-145 prostate and in the test on NCI-H226 lung was over 10000 µM in each case. Also, the TGI is 7890 µM with HL-60(TB) leukemia, over 9750 µM in the test on NCI/ADR-RES ovarian, over 10000 µM in the test on SR leukemia and over 10000 µM with U251 CNS.

As to `COc1ccc(CN2C(=O)/C(=C\C(=O)c3ccc(OCCN4CCCCC4)cc3)c3ccccc32)cc1`, the GI50 in the test on SW-620 colon was 1.74 µM; in the test with 786-0 renal, 1.66 µM; with HS 578T breast, 3.79 µM; in the test with OVCAR-5 ovarian, 1.88 µM; with DU-145 prostate it was 3.35 µM; with NCI-H226 lung, 14.9 µM. Besides, the GI50 in the test on HL-60(TB) leukemia is 2.35 µM; in the test on NCI/ADR-RES ovarian, 3.84 µM; with SR leukemia, 2.04 µM; with U251 CNS it was 2.24 µM. Moreover, the TGI was 3.51 µM with SW-620 colon; 3.11 µM with 786-0 renal; 25.5 µM with HS 578T breast; 5.94 µM in the test with OVCAR-5 ovarian; 11.5 µM in the test on DU-145 prostate; 32.2 µM in the test with NCI-H226 lung. For the same compound, the TGI in the test on HL-60(TB) leukemia was found to be 6.43 µM; in the test with NCI/ADR-RES ovarian, 22.5 µM; with SR leukemia it was 7.4 µM; with U251 CNS, 5.15 µM.

Take `C=C1C(=O)O[C@@H]2C[C@@H]1CC/C(C)=C/CC/C(C)=C/CC[C@@]2(C)O`: the GI50 in the test on SW-620 colon is 25.3 µM; in the test with 786-0 renal, 11.5 µM; in the test with HS 578T breast it was 28.5 µM; with OVCAR-5 ovarian, 22.1 µM; with DU-145 prostate, 14 µM; in the test on NCI-H226 lung, 4.54 µM. For the same compound, the GI50 was 3.04 µM in the test with HL-60(TB) leukemia, 9.28 µM with NCI/ADR-RES ovarian, 1.63 µM with SR leukemia and 18.4 µM in the test with U251 CNS. Further, the TGI in the test with SW-620 colon amounted to 52.5 µM; with 786-0 renal, 24 µM; in the test on HS 578T breast, 72.4 µM; in the test with OVCAR-5 ovarian it was 39.4 µM; in the test with DU-145 prostate, 30.2 µM; in the test with NCI-H226 lung, 22.2 µM. Also, the TGI with HL-60(TB) leukemia was 8.95 µM; with NCI/ADR-RES ovarian, 24.4 µM; in the test on SR leukemia it was 3.58 µM; in the test on U251 CNS it was 43.6 µM.

Consider `Cc1cc(I)cc(CN(C)CCCN2CCCCCCC2)c1O`, for which the GI50 was 16.2 µM in the test with SW-620 colon; 12.7 µM with 786-0 renal; 15.7 µM with HS 578T breast; 18.8 µM in the test on OVCAR-5 ovarian; 17.8 µM in the test on DU-145 prostate; 16.3 µM in the test on NCI-H226 lung. Moreover, the GI50 in the test with HL-60(TB) leukemia was 2.26 µM; in the test on NCI/ADR-RES ovarian it was 20.1 µM; in the test with SR leukemia it was 2.11 µM; in the test on U251 CNS it was 15 µM. In addition, the TGI with SW-620 colon is 30.8 µM; in the test on 786-0 renal, 26.3 µM; in the test on HS 578T breast, 33.7 µM; with OVCAR-5 ovarian, 41.5 µM; in the test on DU-145 prostate, 38 µM; in the test with NCI-H226 lung, 35 µM. The TGI with HL-60(TB) leukemia was found to be 7.97 µM; with NCI/ADR-RES ovarian it was 45.3 µM; with SR leukemia, 14.6 µM; in the test with U251 CNS it was 29.2 µM.
